Data: patent US11214803B2, “Modulators of YAP1 expression” (Ionis Pharmaceuticals, Inc., priority 2019, dated 2022)
Strand notation (5' to 3'): a small letter for the sugar, then the base; units joined by * are phosphorothioate-linked, units joined directly phosphodiester-linked; [ ] holds rarer units or linkages, { } end groups; capitals alone tell only the bases. k = constrained ethyl (cEt); [5mC] = 5-methylcytosine; d = 2'-deoxy (DNA)

Test system: Yap1 mRNA
Experiment: Antisense inhibition of human Yap1 in A-431 cells by cEt gapmers, single dose (Example 3, RTS36584)
Format: cell-based
Details: Table 26; Yap1 mRNA by 3-10-3 cEt gapmers targeting SEQ ID NO.: 1, and 2; percent of untreated control
Procedure, shortened: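 Values are % untreated control: Yap1 mRNA by quantitative RT-PCR (RTS36584), normalized to total RNA by RiboGreen. Before RNA isolation, 5,000 A-431 cells per well were exposed ~48 h to 2,000 nM 16-mer cEt gapmer, delivered without transfection reagent.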

| Substance | YAP1 (% UTC) |
| --- | --- |
| 1075148 (k[5mC]*kG*kG*dA*dA*dA*dA*dA*dA*d[5mC]*dA*d[5mC]*d[5mC]*kT*kA*kG; antisense) [compound 1075148] | 66 % UTC |
| 1075180 (kT*kA*kT*dT*dA*d[5mC]*dT*dA*d[5mC]*dA*dA*d[5mC]*d[5mC]*kA*kT*kA; antisense) [compound 1075180] | 56 % UTC |
| 1075212 (k[5mC]*kA*kA*dT*dA*dA*dA*dG*dG*dG*dT*d[5mC]*d[5mC]*kT*kA*kA; antisense) [compound 1075212] | 76 % UTC |
| 1075244 (kA*k[5mC]*k[5mC]*d[5mC]*dA*dA*dA*dA*dA*dT*dT*d[5mC]*dT*kG*kT*kG; antisense) [compound 1075244] | 76 % UTC |
| 1075276 (kG*kA*k[5mC]*d[5mC]*dA*dA*dT*dA*d[5mC]*dA*dA*dT*dG*kG*kG*kA; antisense) [compound 1075276] | 78 % UTC |
| 1075308 (antisense kA*kA*kT*dT*dA*dA*dA*d[5mC]*dG*dA*dA*dA*d[5mC]*kA*k[5mC]*kG) [compound 1075308] | 97 % UTC |
| 1075340 (antisense k[5mC]*k[5mC]*k[5mC]*dG*dA*dA*d[5mC]*dA*d[5mC]*d[5mC]*d[5mC]*dA*dA*kA*kA*kA) [compound 1075340] | 103 % UTC |
| 1075372 (antisense kA*kT*kA*dT*dA*dT*dA*dG*dA*d[5mC]*dT*dT*dG*kA*kG*kA) [compound 1075372] | 27 % UTC |

Same assay, conditions: Table 27; Yap1 mRNA by 3-10-3 cEt gapmers targeting SEQ ID NO.: 1, and 2; percent of untreated control

| Substance | YAP1 (% UTC) |
| --- | --- |
| 1075149 (kG*k[5mC]*kG*dG*dA*dA*dA*dA*dA*dA*d[5mC]*dA*d[5mC]*k[5mC]*kT*kA; antisense) [compound 1075149] | 50 % UTC |
| 1075181 (kT*kT*kA*dT*dA*dT*dT*dA*d[5mC]*dT*dA*d[5mC]*dA*kA*k[5mC]*k[5mC]; antisense) [compound 1075181] | 15 % UTC |
| 1075213 (kA*k[5mC]*kA*dA*dT*dA*dA*dA*dG*dG*dG*dT*d[5mC]*k[5mC]*kT*kA; antisense) [compound 1075213] | 33 % UTC |
| 1075245 (k[5mC]*k[5mC]*kT*dA*dA*dT*dA*dT*dG*d[5mC]*dT*dA*dT*kT*kG*kT; antisense) [compound 1075245] | 34 % UTC |
| 1075277 (antisense kT*kT*kA*dT*dA*dA*dG*dA*dA*d[5mC]*dT*dG*dT*kG*kG*k[5mC]) [compound 1075277] | 13 % UTC |
| 1075309 (antisense kT*kA*kA*dT*dT*dA*dA*dA*d[5mC]*dG*dA*dA*dA*k[5mC]*kA*k[5mC]) [compound 1075309] | 110 % UTC |
| 1075341 (antisense kG*k[5mC]*kT*dG*dA*dA*d[5mC]*dA*dA*dT*d[5mC]*dT*d[5mC]*k[5mC]*k[5mC]*kG) [compound 1075341] | 31 % UTC |
| 1075373 (antisense kT*kA*kT*dA*dT*dA*dT*dA*dG*dA*d[5mC]*dT*dT*kG*kA*kG) [compound 1075373] | 13 % UTC |

Same assay, conditions: Table 28; Yap1 mRNA as percent of untreated control; 3-10-3 cEt gapmers targeting SEQ ID NO.: 1, and 2

| Substance | YAP1 (% UTC) |
| --- | --- |
| 1075150 (kA*kG*k[5mC]*dG*dG*dA*dA*dA*dA*dA*dA*d[5mC]*dA*k[5mC]*k[5mC]*kT; antisense) [compound 1075150] | 35 % UTC |
| 1075182 (kG*kA*kT*dA*dT*dT*dA*dT*dA*dT*dT*dA*d[5mC]*kT*kA*k[5mC]; antisense) [compound 1075182] | 61 % UTC |
| 1075214 (kA*kA*k[5mC]*dA*dA*dT*dA*dA*dA*dG*dG*dG*dT*k[5mC]*k[5mC]*kT; antisense) [compound 1075214] | 45 % UTC |
| 1075278 (antisense kT*kA*kT*dA*d[5mC]*dT*dA*dA*d[5mC]*dA*dT*dT*d[5mC]*kA*k[5mC]*kG) [compound 1075278] | 48 % UTC |
| 1075310 (antisense kG*kT*kA*dA*dT*dT*dA*dA*dA*d[5mC]*dG*dA*dA*kA*k[5mC]*kA) [compound 1075310] | 84 % UTC |
| 1075342 (antisense kA*k[5mC]*kT*dA*dA*dA*dA*dG*dG*dG*dA*dG*dT*kA*kG*kG) [compound 1075342] | 87 % UTC |
| 1075374 (antisense kG*kA*kA*dA*dA*dT*dA*d[5mC]*dT*d[5mC]*d[5mC]*dT*d[5mC]*k[5mC]*kT*kA) [compound 1075374] | 27 % UTC |

Same assay, conditions: Table 29; Yap1 mRNA as percent of untreated control; 3-10-3 cEt gapmers targeting SEQ ID NO.: 1, and 2

| Substance | YAP1 (% UTC) |
| --- | --- |
| 1075151 (kT*kT*kT*dA*dA*dA*dA*dG*dT*dA*d[5mC]*d[5mC]*dA*kG*k[5mC]*kG; antisense) [compound 1075151] | 60 % UTC |
| 1075183 (kA*kT*kT*dA*d[5mC]*dT*dA*dA*dG*dA*d[5mC]*dA*dG*kT*kG*kG; antisense) [compound 1075183] | 15 % UTC |
| 1075215 (kA*kA*kA*d[5mC]*dA*dA*dT*dA*dA*dA*dG*dG*dG*kT*k[5mC]*k[5mC]; antisense) [compound 1075215] | 44 % UTC |
| 1075247 (k[5mC]*kT*kA*dA*dG*dA*dT*dA*dA*d[5mC]*dT*dA*dG*kT*kA*kA; antisense) [compound 1075247] | 101 % UTC |
| 1075279 (antisense k[5mC]*kT*kA*dT*dA*d[5mC]*dT*dA*dA*d[5mC]*dA*dT*dT*k[5mC]*kA*k[5mC]) [compound 1075279] | 52 % UTC |
| 1075311 (antisense kA*kG*kT*dA*dA*dT*dT*dA*dA*dA*d[5mC]*dG*dA*kA*kA*k[5mC]) [compound 1075311] | 100 % UTC |
| 1075343 (antisense kA*kA*k[5mC]*dT*dA*dA*dA*dA*dG*dG*dG*dA*dG*kT*kA*kG) [compound 1075343] | 89 % UTC |
| 1075375 (antisense k[5mC]*kT*kA*dA*dA*dT*dA*dT*d[5mC]*dA*dA*d[5mC]*dT*k[5mC]*k[5mC]*k[5mC]) [compound 1075375] | 35 % UTC |

Same assay, conditions: Table 34; Yap1 mRNA as percent of untreated control; 3-10-3 cEt gapmers targeting SEQ ID NO: 1 and 2; single dose

| Substance | YAP1 (% UTC) |
| --- | --- |
| 1075156 (kA*kT*kT*dA*dT*dA*dT*dG*dA*d[5mC]*dT*d[5mC]*dT*kG*k[5mC]*kT; antisense) [compound 1075156] | 22 % UTC |
| 1075188 (kA*kG*kT*d[5mC]*dA*dA*d[5mC]*d[5mC]*dT*dG*dT*dA*dA*kT*kT*kA; antisense) [compound 1075188] | 14 % UTC |
| 1075220 (kA*kA*kT*dT*dT*dT*dA*dA*d[5mC]*dT*dG*dT*dG*kA*k[5mC]*k[5mC]; antisense) [compound 1075220] | 24 % UTC |
| 1075252 (kT*kT*kA*dA*dT*dT*dA*d[5mC]*dG*dA*dT*dT*dA*kG*kA*kT; antisense) [compound 1075252] | 90 % UTC |
| 1075284 (antisense k[5mC]*kT*kT*dT*dT*d[5mC]*dG*dA*dA*dT*dA*dT*dA*kG*kA*kA) [compound 1075284] | 76 % UTC |
| 1075316 (antisense kG*kT*kA*dT*dA*dT*dA*dG*dA*dT*dA*d[5mC]*d[5mC]*k[5mC]*kA*k[5mC]) [compound 1075316] | 25 % UTC |
| 1075348 (antisense kT*k[5mC]*kA*d[5mC]*dA*dA*dA*dA*d[5mC]*d[5mC]*d[5mC]*dT*dA*k[5mC]*kA*k[5mC]) [compound 1075348] | 96 % UTC |
| 1075380 (antisense kA*k[5mC]*kT*dA*dA*dA*dA*d[5mC]*dT*dG*dA*d[5mC]*dT*kG*kT*k[5mC]) [compound 1075380] | 94 % UTC |

Same assay, conditions: Table 35; Yap1 mRNA as percent of untreated control; 3-10-3 cEt gapmers targeting SEQ ID NO: 1 and 2; single dose

| Substance | YAP1 (% UTC) |
| --- | --- |
| 1075125 (k[5mC]*kT*kT*dA*dA*dG*dG*dT*dA*d[5mC]*dA*dA*dG*kG*k[5mC]*kA; antisense) [compound 1075125] | 84 % UTC |
| 1075157 (k[5mC]*k[5mC]*kA*dG*dA*dA*dA*dA*dT*d[5mC]*dA*dT*dA*kG*kT*kA; antisense) [compound 1075157] | 19 % UTC |
| 1075189 (kG*k[5mC]*kT*dA*dA*dT*dA*dG*dT*d[5mC]*dA*d[5mC]*dT*kG*kT*kT; antisense) [compound 1075189] | 11 % UTC |
| 1075221 (k[5mC]*kA*kT*dT*dA*dT*d[5mC]*d[5mC]*dG*dG*dG*dA*dG*kA*kG*k[5mC]; antisense) [compound 1075221] | 10 % UTC |
| 1075253 (kG*kT*kT*dA*dA*dT*dT*dA*d[5mC]*dG*dA*dT*dT*kA*kG*kA; antisense) [compound 1075253] | 20 % UTC |
| 1075285 (antisense kT*kA*kT*dA*d[5mC]*dA*dT*dA*dG*dT*d[5mC]*dA*dA*kT*kT*k[5mC]) [compound 1075285] | 60 % UTC |
| 1075317 (antisense kG*kT*kA*dT*dT*d[5mC]*dG*d[5mC]*d[5mC]*dT*d[5mC]*d[5mC]*dT*kG*k[5mC]*kA) [compound 1075317] | 27 % UTC |
| 1075349 (antisense kA*kT*kT*dA*dA*dA*dG*d[5mC]*dT*d[5mC]*dA*dT*dT*kG*kA*kT) [compound 1075349] | 81 % UTC |
| 1075381 (antisense kT*kA*kT*dT*dA*d[5mC]*d[5mC]*d[5mC]*dT*dA*d[5mC]*dT*d[5mC]*kA*kT*kA) [compound 1075381] | 89 % UTC |
